Reference: publication PMC11813147, “Bioactivity assessment of peptides derived from salted jellyfish (Rhopilema hispidum) byproducts” (PLOS ONE, 2025)

Legend:
[1] = test system: angiotensin I-converting enzyme (ACE); experiment: ACE inhibitory activity assay (fluorometric ACE activity assay kit); assay type: biochemical
Protocol: The ACE inhibitory activity assay was performed following the method outlined by Batista et al., with slight modifications, using a fluorometric angiotensin I-converting enzyme (ACE) activity assay kit from Sigma-Aldrich (catalog number CS0002), Burlington, Massachusetts, USA. In summary, 10 µ L of the sample (1 mg/mL for the peptide sample and 50 µg/mL for ramipril) was combined with 40 µ L of the ACE solution (CS0002B) in 96-well flat-bottom black plates at 37 °C for 5 min. Next, 50 µ L of the substrate solution (CS0002C) was added to this mixture to initiate the reaction. A fluorescence multiwell plate reader was used to monitor the changes in fluorescence. The sample’s fluorescence was measured every min for 5 min, with excitation at 320 nm and emission at 405 nm. All reagents, except the test sample, were prepared to assess the ACE positive control activity. A kit standard solution (CS0002D) was diluted with assay buffer (CS0002A) to create different concentrations (nmol) of the standard solution, allowing generation of a standard curve. The slope of the standard curve (RFU/nmol) and the slope of the sample kinetic curve were utilized to calculate the ACE activity using the following equation (3):
ACEactivitynmol/min=Slopesample/Slopestandard×DF (3)
Where Slopesample refers to the slope of the blank-subtracted sample curve (RFU/min), Slopestandard refers to the slope of the blank-subtracted standard curve (RFU/nmol), DF is the dilution factor, and 0.1 nmol/min is equivalent to […].
In this study, the results of ACE inhibitory activity are expressed as percentages. The ACE inhibitory activity (%) was calculated using the following equation (4):
ACEinhibitoryactivity%=ACEPC–ACES/ACEPC×100 (4)
Where ACEPC represents the ACE activity of the positive control, and ACES denotes the ACE activity of the sample.

[2] = test system: RAW 264.7; experiment: Cytotoxicity assessment (MTT); assay type: cell-based, Murine; settings: peptide 10 µg/mL, 72 h
Protocol: (§1) Murine macrophage cells (RAW 264.7; ATCC TIB-71™) were cultured in Dulbecco’s Modified Eagle’s Medium (DMEM) that was supplemented with 10% heat-inactivated fetal bovine serum (FBS) and 1% antibiotic solution. Colorectal adenocarcinoma cells (CaCo-2; ATCC HTB 37™) were cultured in Eagle’s Minimum Essential Medium (EMEM), also supplemented with 10% heat-inactivated FBS and 1% antibiotic solution. Both cell types were maintained in a humidified incubator with 5% CO2. The cell culture medium was refreshed every three days.
Cytotoxicity assessment was performed following the method described by Yang et al., with slight modifications. RAW 264.7 was seeded with 1 x 10^5 cells in a 96-well plate with an appropriate cell culture medium. After allowing the cells to attach, the medium was replaced with a fresh cell culture medium containing the peptide samples at a concentration of 10 µg/mL. The treated cells were incubated for an additional 72 h. At the designated time, fresh medium was added, which included 3-(4,5-dimethylthiazol-2-yl)-2,5-diphenyltetrazolium bromide (MTT) at a concentration of 0.5 mg/mL. After 3 h, formazan crystals were observed. The medium was then removed, and the crystals were dissolved in 100% dimethyl sulfoxide (DMSO). A microplate reader (Synergy HTX; Biotek, Multi-Mode Reader, Winooski, VT, USA) was utilized to measure the absorbance at 570 nm (measurement wavelength) and 630 nm (reference wavelength). The percentage of cell viability was calculated relative to untreated cells using the following equation (5):
Cellviability%=ODtreatment–ODblank/ODuntreated–ODblank×100 (5)
Where ODtreatment is the absorbance of the treated sample, ODuntreated is the absorbance of the untreated sample, and ODblank is the absorbance from wells without treated and untreated samples.

[3] = Ferric reducing antioxidant power (FRAP) assay; assay type: biochemical
Protocol: The FRAP assay was conducted following the method outlined by Rumpf et al.. The FRAP solution was prepared by mixing 300 mM acetate buffer (pH 3.6), 10 mM TPTZ (2,4,6-Tris(2-pyridyl)-s-triazine) in 40 mM hydrochloric acid, and 20 mM FeCl3 in a ratio of 10:1:1. In a 96-well plate, 10 μL of the sample was combined with 190 μL of the FRAP solution and incubated in the dark for 15 min. The absorbance of the mixture was then measured at 593 nm. FeSO4 was used to create the standard curve, and the results were expressed as millimoles of FeSO4 equivalent per milligram of protein (mM FeSO4/mg protein).

[4] = DPPH radical scavenging assay; assay type: biochemical; settings: supplement tables; for DPPH, mean±SD: n = 3
Protocol: The DPPH radical scavenging activity of the sample was assessed following a modified protocol based on a previous study. In each well of a 96-well plate, 10 μL of the sample was added, followed by 190 μL of 0.1 mM DPPH solution in 70% ethanol. The mixture was then incubated at room temperature in the dark for 30 min. After the incubation period, the absorbance of the mixture was measured at 517 nm. The DPPH radical scavenging activity was calculated using the following equation (1):
DPPHradicalscavengingactivity%=Acontrol–Asample/Acontrol×100 (1)
In this equation, Acontrol represents the absorbance of a control solution containing all reagents except for the test samples, while Asample is the absorbance of the mixture (the sample combined with 0.1 mM DPPH). To determine the Trolox equivalent antioxidant capacity (TEAC), a Trolox standard curve was utilized. The results were expressed as millimoles of Trolox equivalents per milligram of protein (mM TE/mg protein).

[5] = test system: RAW 264.7; experiment: Anti-inflammation assay: released NO in LPS-stimulated RAW 264.7 (Griess); assay type: cell-based, Murine; settings: then 1 µg/mL LPS 24 h; for Released NO: peptide 10 µg/mL 1 h; for Released NO, mean±SD: peptide 10 µg/mL pre-treatment 1 h, Griess reagent, n = 3
Protocol: as §1
The anti-inflammation assay was conducted following the method described by Barzkar et al. with slight modifications. RAW 264.7 (1 x 10^5 cells) was seeded into a 96-well plate to allow for cell attachment. After 24 h, the cells were pre-treated with fresh medium containing peptide samples at a concentration of 10 µg/mL for 1 h. Subsequently, the treated cells were stimulated with 1 µg/mL lipopolysaccharide (LPS) for an additional 24 h. Unstimulated cells were included as a negative control. At the end of the treatment period, the conditioned medium was collected for the determination of released nitric oxide (NO). Griess’s reagent (Promega) was utilized to measure the NO concentration, following the manufacturer’s instructions. A NO calibration curve was generated to quantify the released NO in the conditioned medium.

[6] = ABTS radical scavenging assay; assay type: biochemical; settings: supplement tables; for ABTS, mean±SD: n = 3
Protocol: The ABTS radical scavenging activity of the sample was measured using a method adapted from Mirzaei et al.. The ABTS radical was generated by mixing 7 mM ABTS with 2.45 mM potassium persulfate in a 1:1 ratio and incubating the mixture in the dark at room temperature for 12 to 16 h. The resulting solution was then diluted to achieve an absorbance of 0.74 ± 0.03 at 734 nm, using deionized water for adjustments. Next, 10 μL of the sample was added to 190 μL of the ABTS solution. The mixture was incubated in the dark for 7 min, after which the absorbance was measured at 734 nm. The ABTS radical scavenging activity (%) was calculated using the following equation (2):
ABTSradicalscavengingactivity%=Acontrol–Asample/Acontrol×100 (2)
In this equation, Acontrol refers to the absorbance of the control solution (which contains all reagents except the test samples), while Asample refers to the absorbance of the mixture containing the sample and the ABTS solution. To determine the Trolox equivalent antioxidant capacity (TEAC), a Trolox standard curve was used, and the results were expressed as millimoles of Trolox equivalents per milligram of protein (mM TE/mg protein).

[7] = peptide sample 1 mg/mL, 37 °C, fluorescence ex 320/em 405 nm, mean ± SD, n = 3, SD
[8] = peptide sample 1 mg/mL, replicate 1
[9] = peptide sample 1 mg/mL, replicate 2
[10] = peptide sample 1 mg/mL, replicate 3
[11] = 10 µL sample + 190 µL FRAP solution, 15 min dark, 593 nm, FeSO4 standard curve, mean ± SD, n = 3, SD

| Compound | ACE inhibitory activity [1, 8] [%] | ACE inhibitory activity [1, 9] [%] | ACE inhibitory activity [1, 10] [%] | Cell viability ([2]; replicate 1) [%] | Cell viability ([2]; replicate 2) [%] | Cell viability ([2]; replicate 3) [%] | FRAP ([3]; supplement tables, replicate 1) [mM FeSO4/mg protein] | FRAP ([3]; supplement tables, replicate 2) [mM FeSO4/mg protein] | FRAP ([3]; supplement tables, replicate 3) [mM FeSO4/mg protein] | DPPH, mean±SD [4] | DPPH ([4]; replicate 1) [TE/mg protein] | DPPH ([4]; replicate 2) [TE/mg protein] | DPPH ([4]; replicate 3) [TE/mg protein] | Released NO ([5]; replicate 1) [µM] | Released NO ([5]; replicate 2) [µM] | Released NO ([5]; replicate 3) [µM] | Released NO, mean±SD [5] | ABTS, mean±SD [6] | ABTS ([6]; replicate 1) [TE/mg protein] | ABTS ([6]; replicate 2) [TE/mg protein] | further results |
| --- | --- | --- | --- | --- | --- | --- | --- | --- | --- | --- | --- | --- | --- | --- | --- | --- | --- | --- | --- | --- | --- |
| CCOC(=O)[C@H](CCc1ccccc1)N[C@@H](C)C(=O)N1[C@H](C(=O)O)C[C@@H]2CCC[C@@H]21 [Ramipril, ramipril, reference compound] |  |  |  |  |  |  |  |  |  |  |  |  |  |  |  |  |  |  |  |  | ACE inhibitory activity, mean±SD ([1]; ramipril 50 µg/mL, mean ± SD, n = 3, SD): 23.23±0.44^G %; ACE inhibitory activity, mean±SD ([1]; ramipril 50 µg/mL, mean ± SD, n = 3, listed as ramipril, SD): 23.23 ± 0.44%; ACE inhibitory activity ([1]; ramipril 50 µg/mL, replicate 1): 22.79%; ACE inhibitory activity ([1]; ramipril 50 µg/mL, replicate 2): 23.23%; ACE inhibitory activity ([1]; ramipril 50 µg/mL, replicate 3): 23.67% |
| EIILIPMF [P3, synthesized peptide identified from jellyfish fraction PUR20C] | 33.58 | 33.87 | 34.16 | 75.57 | 75.92 | 75.39 | 9.31 | 9.31 | 9.10 | 2.93 TE/mg protein | 2.84 | 2.58 | 3.37 | 37.58 | 35.17 | 37.24 | 36.66 ± 1.30 µM | 3.17 TE/mg protein | 3.31 | 2.71 | ACE inhibitory activity, mean±SD [1, 7]: 33.87±0.28^E %; FRAP [3, 11]: 9.24±0.12 mM FeSO4/mg protein; ABTS ([6]; replicate 3): 3.51 TE/mg protein |
| LMFMAVAFF [P12, synthesized peptide identified from jellyfish fraction PUR20C] | 49.61 | 43.60 | 49.33 | 76.97 | 73.98 | 74.86 | 16.26 | 17.31 | 16.68 | 2.75 TE/mg protein | 2.58 | 2.58 | 3.11 | 36.89 | 38.62 | 40.00 | 38.50±1.55^B µM | 0.64±0.30^M TE/mg protein | 0.90 | 0.30 | ACE inhibitory activity, mean±SD [1, 7]: 47.51±3.39^D %; FRAP [3, 11]: 16.75±0.52^B mM FeSO4/mg protein; ABTS ([6]; replicate 3): 0.70 TE/mg protein |
| NFTVLCDSLE [P10, synthesized peptide identified from jellyfish fraction PUR20C] | 11.25 | 9.82 | 8.39 | 85.41 | 84.35 | 86.29 | 20.05 | 21.10 | 18.36 | 45.99±1.10^B TE/mg protein | 46.34 | 44.75 | 46.87 | 35.86 | 35.17 | 38.27 | 36.43 µM | 98.00±0.50^G TE/mg protein | 97.47 | 98.07 | inhibition [1, 7]: 9.82 ± 1.43%; Cell viability, mean±SD ([2]; relative to untreated cells, mean ± SD, n = 3, SD): 85.35%; ABTS ([6]; replicate 3): 98.47 TE/mg protein |
